Laboratory results published in patent US12527779B2, “Prostaglandin E2 (PGE2) EP4 receptor antagonists” (Domain Therapeutics, priority 2019, dated 2026).
Where a name gives a salt, the structure may show the parent alone.

Target: T1, human EP4 (hEP4) receptor (Homo sapiens, UniProt P35408)
T1 construct: expressed in transfected cells; host or cells: HEK-293 T cells, transient co-transfection with polyethylenimine
Test: In vitro human EP4 functional antagonist activity using BRET biosensors (cAMP EPAC biosensor, TCS2510 stimulation)
Assay type: cell-based
Details: antagonist activity vs EC60 TCS2510, hEP4 in HEK-293 T cells
Description: Examples of the present invention were tested successively for their agonist and antagonist activities on human EP4 (hEP4) receptor transiently over-expressed in HEK-293 T cells. […] The assay used to measure compound activity is based on the BRET technology. The unimolecular cAMP biosensor used to detect intracellular cAMP levels following GPCR stimulation consists of the EPAC protein fused to N- and C-terminal of Luciferase and GFP respectively.
Cell Culture and Transfection: HEK-293 T cells are maintained in Dulbecco's Modified Eagle's Medium supplemented with 10% Foetal Calf Serum, 1% Penicillin/Streptomycin at 37° C./5% CO2. Cells are co-transfected using polyethylenimine (25 kDa linear) with two DNA plasmids encoding hEP4, EPAC fused to luciferase (BRET donor) and to GFP (BRET acceptor). After transfection, cells are cultured (40,000 cells per well) for 48 h at 37° C./5% CO2.
BRET assay: Receptor activity is detected by changes in BRET signal. On the day of the assay, cells are rinsed and incubated in assay buffer (1.8 mM CaCl2, 1 mM MgCl2, 2.7 mM KCl, 137 mM NaCl, 0.4 mM NaH2PO4, 5.5 mM D-Glucose, 11.9 mM NaHCO3, 25 mM Hepes). Then, plates are equilibrated 1 h at 22° C. before adding compounds. Compounds and luciferase substrate are added to the cells using an automated device (Freedom Evo®, Tecan) and BRET readings are collected on EnVision (PerkinElmer) with specific filters (410 nm BW 80 nm, 515 nm BW 30 nm). Agonist and antagonist activities of compounds are consecutively evaluated on the same cell plate. Agonist activity is first measured after 5 min incubation with compound alone on the cells. Then, cells are stimulated by an EC60 TCS2510 concentration and luminescence is recorded for additional 10 min. EC60 TCS2510 concentration is the concentration giving 60% of the maximal TCS2510 response. Agonist or antagonist activities are evaluated in comparison to basal signals evoked by assay buffer or EC60 TCS2510 alone, respectively.
For IC50 determination, a dose-response test is performed using 10 concentrations (ranging over 4.5 logs) of each compound. Dose-response curves are fitted using the sigmoidal dose-response (variable slope) analysis in GraphPad Prism software (GraphPad Software) and IC50 of antagonist activity is calculated. Dose-response experiments are performed in duplicate, in two independent experiments. IC50 values are categorized as following: A: IC50<0.1 μM; B: IC50<1 μM.

T1 sequence (P35408 whole entry): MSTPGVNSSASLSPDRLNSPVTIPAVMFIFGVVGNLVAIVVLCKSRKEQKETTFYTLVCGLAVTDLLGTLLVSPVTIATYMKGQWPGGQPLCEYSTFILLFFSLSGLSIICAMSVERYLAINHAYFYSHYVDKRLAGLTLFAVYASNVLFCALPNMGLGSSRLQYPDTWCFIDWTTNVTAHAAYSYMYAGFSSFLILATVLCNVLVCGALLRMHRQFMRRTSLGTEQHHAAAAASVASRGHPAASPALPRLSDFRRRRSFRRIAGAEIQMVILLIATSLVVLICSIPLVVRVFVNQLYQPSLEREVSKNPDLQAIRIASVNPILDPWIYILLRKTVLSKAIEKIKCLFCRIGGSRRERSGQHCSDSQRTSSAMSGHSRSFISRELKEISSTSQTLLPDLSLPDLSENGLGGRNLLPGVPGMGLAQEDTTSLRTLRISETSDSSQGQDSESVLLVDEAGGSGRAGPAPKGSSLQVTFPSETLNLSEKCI

SMILES | IC50
C[C@H](NC(=O)C1(c2cccc(OCc3ccccc3)c2)CCOCC1)c1ccc(C(=O)O)cc1 [Example 99, 4-[(1S)-1-[[4-(3-Benzyloxyphenyl)tetrahydropyran-4-carbonyl]amino]ethyl]benzoic acid] | < 1000 nM
C[C@H](NC(=O)C1(NCCOc2ccccc2)CCOCC1)c1ccc(C(=O)O)cc1 [Example 1, 4-[(1S)-1-[[4-(2-Phenoxyethylamino)tetrahydropyran-4-carbonyl]amino]ethyl]benzoic acid, hydrochloride] | < 100 nM
CN(CCOc1ccc(OC(F)(F)F)cc1)C1(C(=O)NC2(c3ccc(C(=O)O)cc3)CC2)CCOCC1 [Example 45, 4-[1-[[4-[2-(4-Trifluoromethoxyphenoxy)ethyl-methyl-amino]tetrahydropyran-4-carbonyl]amino]cyclopropyl]benzoic acid, hydrochloride] | < 1000 nM
COc1cccc(OCCNC2(C(=O)N[C@@H](C)c3ccc(C(=O)O)cc3)CCOCC2)c1 [Example 13, 4-[(1S)-1-[[4-[2-[3-Methoxyphenoxy]ethylamino]tetrahydropyran-4-carbonyl]amino]ethyl]benzoic acid, hydrochloride] | < 100 nM
C[C@H](NC(=O)C1(N2CC[C@@H](Oc3cccc(C(F)(F)F)c3)C2)CCOCC1)c1ccc(C(=O)O)cc1 [Example 144, 4-[(1S)-1-[[4-[(3R)-3-[3-(Trifluoromethyl)phenoxy]pyrrolidin-1-yl]tetrahydropyran-4-carbonyl]amino]ethyl]benzoic acid, hydrochloride] | < 100 nM
C[C@H](NC(=O)C1(c2ccc(OCCC3CCCCC3)nc2)CCCC1)c1ccc(C(=O)O)cc1 [Example 130, 4-[(1S)-1-[[1-[6-(2-Cyclohexylethoxy)-3-pyridyl]cyclopentanecarbonyl]amino]ethyl]benzoic acid] | < 1000 nM
C[C@H](NC(=O)C1(N2CC[C@@H](Oc3cccc(C(F)(F)F)c3)C2)CCOCC1)c1cccc(Cl)c1 [Example 191, N—((S)-1-(3-Chlorophenyl)ethyl)-4-((R)-3-(3-(trifluoromethyl)phenoxy)pyrrolidin-1-yl)tetrahydro-2H-pyran-4-carboxamide, hydrochloride] | < 1000 nM
C[C@H](NC(=O)C1(N2CC[C@@H](Oc3cccc(C(F)(F)F)c3)C2)CCOCC1)c1ccc(S(C)(=O)=O)cc1 [Example 179, N—((S)-1-(4-(Methylsulfonyl)phenyl)ethyl)-4-((R)-3-(3-(trifluoromethyl)phenoxy)pyrrolidin-1-yl)tetrahydro-2H-pyran-4-carboxamide, hydrochloride] | < 100 nM
O=C(O)c1ccc(C2(NC(=O)C3(N4CC[C@@H](Oc5cccc(Cl)c5)C4)CCOCC3)CC2)cc1 [Example 141, 4-[1-[[4-[(3R)-3-(3-Chlorophenoxy)pyrrolidin-1-yl]tetrahydropyran-4-carbonyl]amino]cyclopropyl]benzoic acid, hydrochloride] | < 100 nM
O=C(O)c1ccc(C2(NC(=O)C3(N4CC[C@@H](Oc5ccccc5)C4)CCOCC3)CC2)cc1 [Example 153, 4-[1-[[4-((3R)-3-Phenoxypyrrolidin-1-yl)tetrahydropyran-4-carbonyl]amino]cyclopropyl]benzoic acid, hydrochloride] | < 100 nM

The next lines start with the values.

IC50 | SMILES
< 100 nM | C[C@H](NC(=O)C1(N2CC[C@@H](Oc3cccc(Cl)c3)C2)CC1)c1ccc(C(=O)O)cc1 [Example 160, 4-[(1S)-1-[[1-[(3R)-3-(3-Chlorophenoxy)pyrrolidin-1-yl]cyclopropane-1-carbonyl]amino]ethyl]benzoic acid, hydrochloride]
< 100 nM | Cc1cccc(OCCNC2(C(=O)N[C@@H](C)c3ccc(C(=O)O)cc3)CCCCC2)c1 [Example 58, 4-[(1S)-1-[[1-[2-(3-Methylphenoxy)ethylamino]cyclohexanecarbonyl]amino]ethyl]benzoic acid, hydrochloride]
< 1000 nM | CN(CCOc1cccc(C#N)c1)C1(C(=O)NC2(c3ccc(C(=O)O)cc3)CC2)CCOCC1 [Example 46, 4-[1-[[4-[2-(3-Cyanophenoxy)ethyl-methyl-amino]tetrahydropyran-4-carbonyl]amino]cyclopropyl]benzoic acid, hydrochloride]
< 1000 nM | C[C@H](NC(=O)C1(NCc2cccc(F)c2)CCOCC1)c1ccc(C(=O)O)cc1 [Example 20, 4-[(1S)-1-[[4-[(3-Fluorophenyl)methylamino]tetrahydropyran-4-carbonyl]amino]ethyl]benzoic acid, hydrochloride]
< 1000 nM | C[C@H](NC(=O)C1(N2CC[C@@H](Oc3cccc(C(F)(F)F)c3)C2)CCOCC1)c1ccccn1 [Example 186, N—((S)-1-(Pyridin-2-yl)ethyl)-4-((R)-3-(3-(trifluoromethyl)phenoxy)pyrrolidin-1-yl)tetrahydro-2H-pyran-4-carboxamide, hydrochloride]
< 100 nM | C[C@H](NC(=O)C1(c2ccc(OCC3CCCCC3)cc2)CCCC1)c1ccc(C(=O)O)cc1 [Example 108, 4-[(1S)-1-[[1-[4-(Cyclohexylmethoxy)phenyl]cyclopentanecarbonyl]amino]ethyl]benzoic acid]
< 100 nM | CN(CCOc1cccc(Cl)c1)C1(C(=O)NC2(c3ccc(C(=O)O)cc3)CC2)CCOC1 (stereo not drawn) [Example 77, 4-[1-[[3-[2-(3-Chlorophenoxy)ethyl-methyl-amino]tetrahydrofuran-3-carbonyl]amino]cyclopropyl]benzoic acid, hydrochloride]
< 1000 nM | C[C@H](NC(=O)C1(c2ccc(OCCC3CCCCC3)nc2)CCOCC1)c1ccc(C(=O)O)cc1 [Example 122, 4-[(1S)-1-[[4-[6-(2-Cyclohexylethoxy)-3-pyridyl]tetrahydropyran-4-carbonyl]amino]ethyl]benzoic acid]
< 100 nM | Cc1cccc(OCCN(C)C2(C(=O)NC3(c4ccc(C(=O)O)cc4)CC3)CCOCC2)c1 [Example 35, 4-[1-[[4-[2-(3-Methylphenoxy)ethyl-methyl-amino]tetrahydropyran-4-carbonyl]amino]cyclopropyl]benzoic acid, hydrochloride]
< 100 nM | C[C@H](NC(=O)C1(c2ccc(OCCCc3ccccc3)cc2)CCOCC1)c1ccc(C(=O)O)cc1 [Example 92, 4-[(1S)-1-[[4-[4-(3-Phenylpropoxy)phenyl]tetrahydropyran-4-carbonyl]amino]ethyl]benzoic acid]
< 1000 nM | Cc1ccc(OCCN(C)C2(C(=O)NC3(c4ccc(C(=O)O)cc4)CC3)CCOCC2)cc1 [Example 37, 4-[1-[[4-[2-(4-Methylphenoxy)ethyl-methyl-amino]tetrahydropyran-4-carbonyl]amino]cyclopropyl]benzoic acid, hydrochloride]
< 100 nM | C[C@H](NC(=O)C1(c2ccnc(OCC3CCCCC3)c2)CCCC1)c1ccc(C(=O)O)cc1 [Example 124, 4-[(1S)-1-[[1-[2-(Cyclohexylmethoxy)-4-pyridyl]cyclopentanecarbonyl]amino]ethyl]benzoic acid]
< 100 nM | COc1cccc(OCCN(C)C2(C(=O)NC3(c4ccc(C(=O)O)cc4)CC3)CCOCC2)c1 [Example 38, 4-[1-[[4-[2-(3-Methoxyphenoxy)ethyl-methyl-amino]tetrahydropyran-4-carbonyl]amino]cyclopropyl]benzoic acid, hydrochloride]
< 1000 nM | C[C@H](NC(=O)C1(c2cccc(OC3CCCCC3)c2)CCOCC1)c1ccc(C(=O)O)cc1 [Example 100, 4-[(1S)-1-[[4-[3-(Cyclohexoxy)phenyl]tetrahydropyran-4-carbonyl]amino]ethyl]benzoic acid]
